Reference: patent US12403141B2, “Deuterated MK2 pathway inhibitors and methods of using the same” (ACLARIS THERAPEUTICS, INC., priority 2019, dated 2025)
Read-outs that look alike come from different tables or passages of the source.

Assay: IV pharmacokinetics in male SD rats
Format: in vivo, rat
Conditions: for clearance: male, Sprague-Dawley, rat, plasma, iv
Experimental: Pharmacokinetic parameters of some examples were evaluated in male Sprague Dawley (SD) rats after intravenous (IV) and oral (PO) dosing. Male SD rats (5-6 weeks of age) were fasted for 12 hours before administration of the compound of interest. Animals were allowed access to food 2 h after dosing and water was given ad libitum. Except for the compound of Example 13, pharmacokinetic experiments comparing deuterium containing and non-deuterium containing compounds were performed at the same time using the same cohort of animals. The pharmacokinetic properties of the compound of Example 13 were evaluated separately and compared to previously generated data.
For IV dosing, a 0.5 mg/mL solution of the test compound was prepared in a vehicle consisting of 5% DMSO, 5% Cremophore, 90% normal saline. For a 1 mpk dose, 2 mL/kg of this dosing vehicle was administered to each rat by bolus injection into the tail vein. For lower doses, the dosing solution was diluted with the appropriate amount of vehicle. Example 3 was evaluated at 3 mpk by preparing a 1.5 mg/mL solution in the same vehicle and dosing 2 mL/kg. Blood samples from each animal was collected in di-sodium EDTA coated containers at 0.12, 0.25, 0.5, 1.0, 2.0, 4.0, 8.0 and 24.0 hours after dosing. Plasma was separated from the blood samples within 15 minutes following collection and stored at −20±5° C. before analysis.
A standard curve was generated from a stock solution of the test compound with known concentration in methanol. Working solutions having known concentrations ranging from 5-20,000 ng/mL were prepared from the stock solution by dilution with methanol:water (80:20 v/v). 5 uL of the working solutions were added to 45 uL of blank rat plasma to provide standard samples for analysis.
Plasma samples collected from rats after dosing were allowed to reach room temperature. A 50 uL aliquot of each plasma sample and the standard curve plasma samples were treated with 200 uL of acetonitrile containing an internal standard (100 ng/mL; warfarin/diclofenac) and mixed well. The samples were vortexed for 5 minutes followed by centrifugation for 5 minutes at 14000 rpm at 4° C. The supernatant (10 uL) was analyzed by LC-MS/MS (LC: Shimadzu SIL HTc, MS: MDS Sciex API-5500 & 4000 using 75%/25% acetonitrile/0.2% formic acid in Milli-Q water, flow rate: 1.0 mL/min, run time 3 minutes, Atlantis dC18(50×4.6 mm, 3 um; Waters®)) and the concentrations of the test compound in the plasma samples collected from rats at each time point were determined by comparison to the standard curve samples.
Pharmacokinetic parameters were calculated from the plasma concentrations at each time point using Phoenix WinNonlin (Version 7.0) by the non-compartmental analysis (NCA) method. Clearance values are reported as mL/min/kg. AUC values are reported as ng·h/mL.

[1] = 0.1 mg/kg, IV 0.1 mpk, ± one standard deviation, read-out: IV clearance 0.1 mpk
[2] = 1 mg/kg, IV 1 mpk, ± one standard deviation, read-out: IV clearance 1 mpk
[3] = IV 0.1 mpk, ± one standard deviation
[4] = 3 mg/kg, IV 3 mpk, ± one standard deviation, read-out: IV clearance 3 mpk

SMILES	clearance [1]	clearance [2]	also measured
[2H]C([2H])(Oc1cc(C)n(-c2cc(-c3ccnc(C(C)(C)O)n3)ncc2C)c(=O)c1Cl)c1ccc(F)cc1F (single isomer, unassigned) [Example 11-H2, 3-chloro-4-((2,4-difluorophenyl)methoxy-d2)-2′-(2-(2-hydroxypropan-2-yl)pyrimidin-4-yl)-5′,6-dimethyl-2H-[1,4′-bipyridin]-2-one]	–	–	dose dependence of clearance (IV 0.1 and 1 mpk): strong dose dependence; IV clearance 0.1 mpk [3]: 40 ± 4 mL/min/kg; IV clearance 1 mpk (IV 1 mpk, ± one standard deviation): 22 ± 2 mL/min/kg
[2H]C([2H])(Oc1cc(C)n(-c2cc(-c3ccnc(C(C)(C)O)n3)ncc2C)c(=O)c1Cl)c1ccccc1 (single isomer, unassigned) [Example 5-D2, 3-Chloro-2′-(2-(2-hydroxypropan-2-yl)pyrimidin-4-yl)-5′,6-dimethyl-4-(phenylmethoxy-d2)-2H-[1,4′-bipyridin]-2-one]	18 ± 1 mL/min/kg	13 ± 2 mL/min/kg	–
Cc1cnc(-c2ccnc(C(C)(C)O)n2)cc1-n1c(C)cc(OCc2ccccc2)c(Cl)c1=O [Example 5-H2, 3-chloro-2′-(2-(2-hydroxypropan-2-yl)pyrimidin-4-yl)-5′,6-dimethyl-4-(phenylmethoxy)-2H-[1,4′-bipyridin]-2-one]	16 ± 2 mL/min/kg	15 ± 2 mL/min/kg	–
[2H]C([2H])(Oc1cc(C)n(-c2cc(-c3ccnc(C(C)(C)O)n3)ncc2C)c(=O)c1Cl)c1cccc(OC)c1 (single isomer, unassigned) [Example 9-D2, 3-Chloro-2′-(2-(2-hydroxypropan-2-yl)pyrimidin-4-yl)-4-((3-methoxyphenyl)methoxy-d2)-5′,6-dimethyl-2H-[1,4′-bipyridin]-2-one]	17 ± 3 mL/min/kg	18 ± 2 mL/min/kg	–
Cc1cnc(-c2ccnc(C(C)(C)O)n2)cc1-n1c(C)cc(OCc2ccn(C)n2)c(Cl)c1=O [Example 3-H2, 3-chloro-2′-(2-(2-hydroxypropan-2-yl)pyrimidin-4-yl)-5′,6-dimethyl-4-((1-methyl-1H-pyrazol-3-yl)methoxy)-2H-[1,4′-bipyridin]-2-one]	13 ± 3 mL/min/kg	9 ± 2 mL/min/kg	clearance [4]: 8 ± 1 mL/min/kg
[2H]C([2H])(Oc1cc(C)n(-c2cc(-c3ccnc(C(C)(C)O)n3)ncc2C)c(=O)c1Cl)c1cccc(C(F)(F)F)c1 (single isomer, unassigned) [Example 7-D2, 3-Chloro-2′-(2-(2-hydroxypropan-2-yl)pyrimidin-4-yl)-5′,6-dimethyl-4-((3-(trifluoromethyl)phenyl)methoxy-d2)-2H-[1,4′-bipyridin]-2-one]	4.9 ± 0.5 mL/min/kg	6 ± 1 mL/min/kg	–

The next lines start with results.

clearance [1]	clearance [2]	SMILES	also measured
7 ± 4 mL/min/kg	3.1 ± 0.3 mL/min/kg	Cc1cnc(-c2ccnc(C(C)(C)O)n2)cc1-n1c(C)cc(OCc2cccc(C(F)(F)F)c2)c(Cl)c1=O [Example 7-H2, 3-chloro-2′-(2-(2-hydroxypropan-2-yl)pyrimidin-4-yl)-5′,6-dimethyl-4-((3-(trifluoromethyl)phenyl)methoxy)-2H-[1,4′-bipyridin]-2-one]	–
–	25 ± 3 mL/min/kg	[2H]C([2H])(Oc1cc(C)n(-c2cc(-c3ccnc(C(C)(C)O)n3)ncc2C)c(=O)c1Cl)c1ccc(F)cc1F (single isomer, unassigned) [Example 11-D2, 3-Chloro-4-((2,4-difluorophenyl)methoxy-d2)-2′-(2-(2-hydroxypropan-2-yl)pyrimidin-4-yl)-5′,6-dimethyl-2H-[1,4′-bipyridin]-2-one]	IV clearance 0.1 mpk [3]: 16 ± 5, mL/min/kg
–	25 ± 7 mL/min/kg	[2H]C([2H])([2H])C(O)(c1nccc(-c2cc(-n3c(C)cc(OCc4ncc(F)cc4F)c(Cl)c3=O)c(C)cn2)n1)C([2H])([2H])[2H] (single isomer, unassigned) [Example 13-D6, 3-Chloro-4-((3,5-difluoropyridin-2-yl)methoxy)-2′-(2-(2-hydroxypropan-2-yl-1,1,1,3,3,3-d6)pyrimidin-4-yl)-5′,6-dimethyl-2H-[1,4′-bipyridin]-2-one]	effect of deuterium substitution on clearance (IV, versus non-deuterated comparator Example 1-H2): did not result in a statistically significant reduction in clearance
12 ± 3 mL/min/kg	13 ± 2 mL/min/kg	[2H]C([2H])(Oc1cc(C)n(-c2cc(-c3ccnc(C(C)(C)O)n3)ncc2C)c(=O)c1Cl)c1ccn(C)n1 (single isomer, unassigned) [Example 3-D2, 3-Chloro-2′-(2-(2-hydroxypropan-2-yl)pyrimidin-4-yl)-5′,6-dimethyl-4-((1-methyl-1H-pyrazol-3-yl)methoxy-d2)-2H-[1,4′-bipyridin]-2-one]	clearance [4]: 9 ± 1 mL/min/kg
16 ± 3 mL/min/kg	12 ± 2 mL/min/kg	COc1cccc(COc2cc(C)n(-c3cc(-c4ccnc(C(C)(C)O)n4)ncc3C)c(=O)c2Cl)c1 [Example 9-H2, 3-chloro-2′-(2-(2-hydroxypropan-2-yl)pyrimidin-4-yl)-4-((3-methoxyphenyl)methoxy)-5′,6-dimethyl-2H-[1,4′-bipyridin]-2-one]	–
